{
  "source": "patent US20250368644A1",
  "about": "“DURLOBACTAM CRYSTALLINE FORMS” (Entasis Therapeutics Limited, priority 2022, published 2025)",
  "key": {"[1]": {"tested_on": "β-lactamases commonly found in A. baumannii", "settings": "preclinical studies, background statement; cited from earlier work"}, "[2]": {"assay": "Stability of DUR, its salts and crystalline forms (observations in words)", "settings": "for Stability of the crystalline form: DUR-Ca polymorphs, solvent systems, Calcium salt", "protocol": "(§1) Attempts were undertaken to form DUR-Ca via salt metathesis by slurry reaction of DUR-TBA salt with six calcium salts (CaCl2), CaBr2, Ca(BF4)2. Ca(OAc)2, Calcium D-gluconate and Calcium citrate) to find an alternative method to the ion exchange resin, which is very time consuming and costly to scale up.\nA range of crystallization experiments were carried out, including evaporations, ambient temperature slurries, vapor stress at ambient temperature and temperature cycling, in many different solvents, or solvent mixtures, using crystalline DUR-Ca, DUR-TBA, and DUR-TEA salts as seeds."}, "[3]": {"assay": "Salt slurry experiments with DUR-Ca Form A (solid form after slurry in solvents)", "format": "physicochemical", "settings": "3 days", "excerpt": "DUR-Ca Form A was slurred in 26 solvents for 3 days. A new distinct form (assigned as Form C) was obtained in most of solvents (Table 19)."}, "[4]": {"assay": "Solubility of the salt in solvents (observations in words)", "format": "physicochemical", "excerpt": "as §1"}},
  "note": "Where a name gives a salt, the structure may show the parent alone.",
  "data": [
    {"smiles": "CC1=C[C@@H]2CN(C(=O)N2OS(=O)(=O)O)[C@@H]1C(N)=O", "note": "[DUR, Durlobactam]", "values": [
      {"measurement": "Inhibition of β-lactamases", "setting": "[1]", "value": "inhibit the β-lactamases commonly found in A. baumannii"},
      {"measurement": "Chemical stability (degradation)", "setting": "[2]; free acid", "value": "readily degraded"}
    ]},
    {"smiles": "CC1=C[C@@H]2CN(C(=O)N2OS(=O)(=O)O)[C@@H]1C(N)=O", "note": "[DUR-Ca Form A, Durlobactam Calcium salt]", "values": [
      {"measurement": "Stability of the crystalline form", "setting": "[2]; listed as Crystalline form A", "value": "unstable in certain solvent systems"},
      {"measurement": "Result (solid form after slurry)", "setting": "[3]; Slurry 1, Methanol", "value": "Form C"},
      {"measurement": "Result (solid form after slurry)", "setting": "[3]; Slurry 2, Ethanol", "value": "Form C"},
      {"measurement": "Result (solid form after slurry)", "setting": "[3]; Slurry 3, IPA", "value": "Form C"},
      {"measurement": "Result (solid form after slurry)", "setting": "[3]; Slurry 4, THF", "value": "Amorphous"},
      {"measurement": "Result (solid form after slurry)", "setting": "[3]; Slurry 5, EtOAc", "value": "Form C"},
      {"measurement": "Result (solid form after slurry)", "setting": "[3]; Slurry 6, Acetone", "value": "Form C"},
      {"measurement": "Result (solid form after slurry)", "setting": "[3]; Slurry 7, Isobutanol", "value": "Form C"},
      {"measurement": "Result (solid form after slurry)", "setting": "[3]; Slurry 8, Isopropyl Acetate", "value": "Form C"},
      {"measurement": "Result (solid form after slurry)", "setting": "[3]; Slurry 9, Acetonitrile", "value": "Form C"},
      {"measurement": "Result (solid form after slurry)", "setting": "[3]; Slurry 10, 2-Butanone", "value": "Form C"},
      {"measurement": "Result (solid form after slurry)", "setting": "[3]; Slurry 11, Toluene", "value": "Mixture of Form A and C"},
      {"measurement": "Result (solid form after slurry)", "setting": "[3]; Slurry 13, Tert-butyl methyl ether", "value": "Form C"},
      {"measurement": "Result (solid form after slurry)", "setting": "[3]; Slurry 14, Propanol", "value": "Form C"},
      {"measurement": "Result (solid form after slurry)", "setting": "[3]; Slurry 15, Isopentanol", "value": "Form C"},
      {"measurement": "Result (solid form after slurry)", "setting": "[3]; Slurry 16, Butyl acetate", "value": "Form C"},
      {"measurement": "Result (solid form after slurry)", "setting": "[3]; Slurry 17, Ethyl Formate", "value": "Form C"},
      {"measurement": "Result (solid form after slurry)", "setting": "[3]; Slurry 18, 1,4-dioxane", "value": "Amorphous"},
      {"measurement": "Result (solid form after slurry)", "setting": "[3]; Slurry 19, Butanol", "value": "Form C"},
      {"measurement": "Result (solid form after slurry)", "setting": "[3]; Slurry 20, Heptane", "value": "Form C"},
      {"measurement": "Result (solid form after slurry)", "setting": "[3]; Slurry 21, Pentane", "value": "Form C"},
      {"measurement": "Result (solid form after slurry)", "setting": "[3]; Slurry 22, Cyclohexane", "value": "Form C"},
      {"measurement": "Result (solid form after slurry)", "setting": "[3]; Slurry 23, Methylisobutyl Ketone", "value": "Form C"},
      {"measurement": "Result (solid form after slurry)", "setting": "[3]; Slurry 24, Xylene", "value": "Form C"},
      {"measurement": "Result (solid form after slurry)", "setting": "[3]; Slurry 25, Isobutyl acetate", "value": "Form C"},
      {"measurement": "Result (solid form after slurry)", "setting": "[3]; Slurry 26, Ethyl ether", "value": "Form C"}
    ]},
    {"smiles": "CC1=C[C@@H]2CN(C(=O)N2OS(=O)(=O)O)[C@@H]1C(N)=O", "note": "[DUR-Ca Form C, Durlobactam Calcium salt]", "values": [
      {"measurement": "Stability of the crystalline form", "setting": "[2]; listed as crystalline form C", "value": "more stable"}
    ]},
    {"smiles": "CC1=C[C@@H]2CN(C(=O)N2OS(=O)(=O)O)[C@@H]1C(N)=O", "note": "[DUR-TBA, Durlobactam Tetrabutylammonium salt]", "values": [
      {"measurement": "Solubility", "setting": "[4]; EtOH", "value": "soluble"},
      {"measurement": "Solubility", "setting": "[4]; most solvents", "value": "soluble in most solvents"}
    ]},
    {"smiles": "CC1=CC2CN(C(=O)N2OS(=O)(=O)O)C1C(N)=O.c1ccncc1", "note": "(centres unmarked) [pyridine salt]", "values": [
      {"measurement": "Stability of the salt as isolated solid", "setting": "[2]", "value": "not stable"}
    ]}
  ]
}
